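How tested: cells in 96-well plates exposed to compound for 48 hours at five concentrations. GI50 = concentration required for 50% inhibition of growth. At the TGI there is no net growth.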
Columns and labels:
Assay in all cases: NCI anticancer screen, dose series, 48 h
TK-10 renal = system: TK-10 renal
SF-295 CNS = system: SF-295 CNS
OVCAR-8 ovarian = system: OVCAR-8 ovarian
NCI-H226 lung = system: NCI-H226 lung
HL-60(TB) leukemia = system: HL-60(TB) leukemia
HT29 colon = system: HT29 colon
CAKI-1 renal = system: CAKI-1 renal
DU-145 prostate = system: DU-145 prostate
HCT-116 colon = system: HCT-116 colon
A498 renal = system: A498 renal

SMILES | TGI (TK-10 renal) [µM] | TGI (SF-295 CNS) [µM] | TGI (OVCAR-8 ovarian) [µM] | TGI (NCI-H226 lung) [µM] | TGI (HL-60(TB) leukemia) [µM] | TGI (HT29 colon) [µM] | TGI (CAKI-1 renal) [µM] | TGI (DU-145 prostate) [µM] | TGI (HCT-116 colon) [µM] | GI50 (NCI-H226 lung) [µM] | GI50 (HL-60(TB) leukemia) [µM] | GI50 (HT29 colon) [µM] | TGI (A498 renal) [µM]
Cc1ccccc1NC(=O)Cc1csc2[n+]1C(=O)/C(=C/c1ccc([N+](=O)[O-])cc1)S2 | 56.3 | > 100 | > 100 | > 100 | > 100 | > 100 | 61.8 | > 100 | > 100 |  |  |  | 
Cc1nc2ccccc2c(/C=C/c2ccc(Cl)cc2)c1C(=O)/C=C/c1ccc(Cl)cc1 |  |  |  | 3.29 | 4.37 | > 100 |  |  |  | 1.59 | 1.46 | 0.739 | 
COc1cc(N(Cc2ccc3oc(=O)c(-c4ccccc4)nc3c2)Cc2ccc3oc(=O)c(-c4ccccc4)nc3c2)cc(OC)c1OC | > 10 | > 10 | > 10 | > 10 | > 10 | > 10 | > 10 | > 10 | > 10 |  |  |  | 
COc1ccc(C(OCC2OC(n3ccc(NC(=O)c4ccccc4)nc3=O)CC2OP2(=S)SCCS2)(c2ccccc2)c2ccc(OC)cc2)cc1 (stereo unspecified) | > 100 | 97.9 | 63.2 | 67.4 |  | 69.7 |  | > 100 | > 100 |  |  |  | 
COc1ccc2oc(=O)c(-c3csc(C)n3)cc2c1 | 64.7 | 40 |  | 89.1 | > 100 | > 100 | > 100 | > 100 | > 100 |  |  |  | 
C[C@H]1S[C@H](c2c(Cl)cccc2Cl)N2Cc3ccccc3N=C12 | 41.9 | 21.9 |  |  | > 100 |  | > 100 | 27.5 | 16.3 |  |  |  | 66
Nc1c(Cl)ncnc1NCCCNc1ncnc(Cl)c1N | > 100 | > 100 | > 100 | > 100 | > 100 | > 100 | > 100 |  | > 100 |  |  |  | > 100
CSc1c(C(=O)Nc2ccc(Cl)cc2)c(N)n(N)c(=O)c1C#N | > 100 |  | > 100 | > 100 | > 100 | > 100 | > 100 | > 100 | > 100 |  |  |  | > 100
Cc1c(/C=N/N(C)C)oc2c1cc(O)c1ncccc12 | > 100 | 97.9 | 74.2 | 48.9 | 6.46 | > 100 | 22.4 |  | > 100 |  |  |  | 82
NNC(=O)c1cc(=O)[nH][nH]1 | > 100 | > 100 | > 100 | > 100 |  | > 100 | > 100 | > 100 | > 100 |  |  |  | 
CSC1NC(c2ccc(Cl)cc2)=C(C#N)C(=O)N1C1OCC(OC(C)=O)C(OC(C)=O)C1OC(C)=O (stereo unspecified) | > 100 | > 100 | > 100 | > 100 |  | > 100 | > 100 | > 100 |  |  |  |  | > 100
CN1c2ccccc2N(C(=O)c2ccccc2)C(CC(=O)O)c2cccn21 (stereo unspecified) | > 100 | > 100 | > 100 |  | > 100 | > 100 | > 100 |  |  |  |  |  | > 100
CC(=O)N(O)c1ccc(-c2nc3ccccc3s2)cc1 | > 100 | > 100 | > 100 | 73.2 |  | > 100 | > 100 | > 100 | > 100 |  |  |  | > 100
O=C(NC(=S)NC(=O)c1cc(O)c(O)c(O)c1)c1cc(O)c(O)c(O)c1 | 61.3 | 46.3 | 44.5 | > 100 |  | 65.5 | 44.3 | 63.8 | 44.4 |  |  |  | > 100
Cc1nc2c(=S)n(C)ncc2[nH]1 | > 100 | > 100 | > 100 | > 100 | > 100 | > 100 | > 100 |  | > 100 |  |  |  | > 100
N#C[C@H](c1nc2ccccc2s1)c1nc2ccccc2nc1Cl |  | 35.7 | > 100 | > 100 | > 100 | > 100 | > 100 |  | > 100 |  |  |  | > 100
CCOC(=O)Oc1ccc2c(c1)c(=O)c1c(NCCN(CC)CC)ccc3nnn2c31 | 16.2 | 19.5 | 14.3 | 7.71 |  | 11.7 | 2.63 | 8.29 | 12.6 |  |  |  | 21.5
CC1=NC(=Cc2ccc([N+](=O)[O-])cc2)C(=O)N1n1c(-c2ccccc2)nc2ccccc2c1=O | > 100 | > 100 | > 100 | > 100 | 88.4 | > 100 | > 100 | > 100 | > 100 |  |  |  | 
CC1C(c2ccc(Cl)cc2)c2cc3c(cc2OC1N1CCOCC1)OCO3 (stereo unspecified) | > 100 | > 100 | > 100 |  |  | > 100 | 71.5 | > 100 | > 100 |  |  |  | 
CC1(C)CC(=O)C2=C(C1)OC1=C(CC(C)(C)CC1=O)C2c1ccccc1[N+](=O)[O-] (stereo unspecified) | > 100 | > 100 |  | > 100 | > 100 | > 100 | > 100 | > 100 | > 100 |  |  |  | > 100
CC1(C)C(=O)C(C)(C)C1=S | > 100 | > 100 | > 100 | > 100 | > 100 | > 100 | > 100 |  | > 100 |  |  |  | > 100
COc1ccc(-n2sc3ncccc3c2=O)cc1 | 33.5 | > 100 | 70.3 | > 100 | 41.5 | 43 |  | > 100 | 32.6 |  |  |  | 
CN(C)c1cc[n+](-c2nc(/N=C(\[O-])C(F)(F)F)nc3c2ncn3C2CC(O)C(CO)O2)cc1 (stereo unspecified) | > 100 | > 100 | > 100 | > 100 | > 100 | > 100 |  | > 100 | > 100 |  |  |  | > 100
